Data taken from US20210177803A1, “NEW PHARMACEUTICAL USE FOR THE TREATMENT OF HEART FAILURE” (Novartis AG, priority 2018, published 2021).

Experiments:
[1] = test system: patients hospitalized for acute HFrEF; test: PIONEER-HF study: clinical outcomes; type: in vivo, human; conditions: 8 weeks; LCZ696 n = 440, enalapril n = 441
Description: The study rational and design is described in by Velazquez E J, et al. .in Am.
(§1) The starting dose and all subsequent doses were selected to optimize the highest tolerated dose based on a systolic blood pressure (SBP) algorithm.
(§2) Inclusion Criteria: • Patients ≥18 y of age with the capacity to provide written informed consent. • Currently hospitalized for a primary diagnosis of HF, including symptoms and signs of fluid overload. • Eligible patients will be randomized no earlier than 24 hours and up to ten days after presentation while still hospitalized as long as meet the following definition of stable status: • SBP≥100 mm Hg for the preceding 6 hours prior to randomization; no symptomatic hypotension • No increase (intensification) in i.v. diuretic dose within last 6 hours prior to randomization • No i.v. inotropic drugs for 24 hours prior to randomization • No i.v. vasodilators including nitrates within last 6 hours prior to randomization • Left ventricular EF 40% within the past 6 m (including current hospitalization) using echocardiography, multi gated acquisition scan (MUGA), CT scanning, MRI or ventricular angiography, provided no subsequent study documented an EF of >40% • Elevated NT-proBNP≥1600 pg/mL OR BNP≥400 pg/mL during current hospitalization.

[2] = test system: patients hospitalized for acute HFrEF
Description: as §1, §2

## CCOC(=O)[C@H](CCc1ccccc1)N[C@@H](C)C(=O)N1CCC[C@H]1C(=O)O [enalapril, reference compound]
[1]
  Additional HF drug: 83 (18.8) number (%)
  Composite (death, rehospitalization for HF, LVAD implantation, or listing for cardiac transplant): 74 (16.8) number (%)
  Death: 15 (3.4) number (%)
  Expanded composite (composite plus unplanned outpatient visits requiring IV diuretics, or increase >50% in diuretic dose): 275 (62.4) number (%)
  HF rehospitalization: 61 (13.8) number (%)
  Increase in diuretic dose >50%: 239 (54.2) number (%)
  LVAD implantation: 1 (0.2) number (%)
  Listing for cardiac transplant: 0 (0.0) number (%)
  Unplanned outpatient visits requiring intravenous diuretics: 2 (0.5) number (%)
[2]; 8 weeks
  Hyperkalemia: 9.3%
  Symptomatic hypotension: 9.1%
  Worsening renal function: 14.7%
[2]; black patients
  Angioedema in patients who identified as black (in words): angioedema were observed
[2]; blinded adjudication
  Angioedema events (number in words): six
[2]; blinded adjudication, 8 weeks
  Angioedema: 1.4%
[2]; by the week 8 study visit
  Patients in whom the maximum target dose had been achieved: 62%
[2]; excluding discontinuation due to death
  Study drug prematurely discontinued prior to 8 weeks: 20.3%
